According to US10179777B2, “3-(1H-benzimidazol-2-yl)-1H-pyridin-2-one derivatives” (MERCK PATENT GMBH, priority 2015, dated 2019):

How the values were obtained:
[1] = target: T1, ALK1 (GST-modified kinase domain ACVRL1 (139-503)) (Homo sapiens, UniProt P37023); assay: ALK1 kinase inhibition assay (33P-ATP filter binding, Reaction Biology); format: biochemical; settings: casein substrate, 100 μM ATP (Km ATP), 120 min ambient temperature
T1 construct: N-terminally GST-modified kinase domain ACVRL1 (139-503); GST (N)
T1 sequence (P37023 139-503): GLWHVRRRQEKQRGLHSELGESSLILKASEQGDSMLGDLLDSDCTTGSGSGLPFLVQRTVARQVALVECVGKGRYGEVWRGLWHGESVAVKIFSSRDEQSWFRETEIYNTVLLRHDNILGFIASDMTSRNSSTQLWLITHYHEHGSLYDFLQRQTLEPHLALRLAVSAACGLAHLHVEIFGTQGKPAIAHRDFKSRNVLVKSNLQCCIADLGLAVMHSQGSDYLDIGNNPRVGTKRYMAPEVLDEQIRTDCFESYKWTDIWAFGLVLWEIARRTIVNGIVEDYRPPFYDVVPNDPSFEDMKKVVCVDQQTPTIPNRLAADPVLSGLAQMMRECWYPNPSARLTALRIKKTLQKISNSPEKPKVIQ
Procedure, shortened: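 GST-tagged kinase domain with 20 mg/ml casein substrate in 20 mM HEPES pH 7.5, 10 mM MgCl2, 1 mM EGTA, 2 mM DTT, 1% DMSO; 120 min at ambient temperature. Phosphorylation read by P81 filter binding; background-subtracted activity as percent of DMSO vehicle, curve-fit for IC50.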

[2] = target: T2, ALK2 (GST-modified kinase domain ACVR1(145-509)) (Homo sapiens, UniProt Q04771); assay: ALK2 kinase inhibition assay (33P-ATP filter binding, Reaction Biology); format: biochemical; settings: casein substrate, 20 μM ATP (Km ATP), 120 min ambient temperature
T2 construct: N-terminally GST-modified kinase domain ACVR1(145-509); GST (N)
T2 sequence (Q04771 145-509): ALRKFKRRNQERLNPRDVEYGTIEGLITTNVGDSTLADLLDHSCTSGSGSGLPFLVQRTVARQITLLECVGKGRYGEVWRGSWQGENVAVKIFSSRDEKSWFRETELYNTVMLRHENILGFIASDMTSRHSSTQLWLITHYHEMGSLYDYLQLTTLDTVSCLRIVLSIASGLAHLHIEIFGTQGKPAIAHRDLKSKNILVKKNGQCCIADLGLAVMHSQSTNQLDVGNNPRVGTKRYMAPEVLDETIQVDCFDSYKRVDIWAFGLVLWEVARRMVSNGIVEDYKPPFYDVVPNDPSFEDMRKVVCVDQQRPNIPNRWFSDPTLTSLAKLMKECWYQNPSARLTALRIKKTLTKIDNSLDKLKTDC
Procedure, shortened: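 Human ACVR1(145-509) kinase domain, N-terminal GST-tagged, with 1 mg/ml casein substrate and 33P-ATP in 20 mM HEPES pH 7.5, 10 mM MgCl2, 1 mM EGTA, 2 mM DTT, 1% DMSO. Incubated 120 min at ambient temperature, then spotted on P81 filters and washed. Background-subtracted activity taken as % of DMSO control; IC50 from curve fit.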

[3] = target: T3, ALK5 (TGFβR1; GST-modified TGFBR1 (200-503)) (Homo sapiens, UniProt P36897); assay: ALK5 kinase inhibition assay (33P-ATP filter binding, Reaction Biology); format: biochemical; settings: casein substrate, 200 μM ATP
T3 construct: Using GST-Modified TGFBR1 (200-503); GST
T3 sequence (P36897 200-503): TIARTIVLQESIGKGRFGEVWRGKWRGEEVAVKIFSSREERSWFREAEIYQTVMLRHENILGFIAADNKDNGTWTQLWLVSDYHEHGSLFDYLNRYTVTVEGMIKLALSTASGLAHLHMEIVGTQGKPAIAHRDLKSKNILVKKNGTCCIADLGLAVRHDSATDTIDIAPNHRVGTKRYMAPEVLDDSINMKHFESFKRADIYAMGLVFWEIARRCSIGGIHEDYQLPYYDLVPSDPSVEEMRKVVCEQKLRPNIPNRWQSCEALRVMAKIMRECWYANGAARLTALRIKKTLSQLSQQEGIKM
Experimental: The protein sequences of the kinases targeted and accompanying information are described in publically available data base http://www.uniprot.org/uniprot/for ALK1 www.uniprot.org/uniprot/P37023, for ALK2 www.uniprot.org/uniprot/Q04771 and for ALK5 www.uniprot.org/uniprot/P36897. IC50 determination of the novel inhibitors described was performed at Reaction Biology Corp., Malvern, Pa., USA, with assay conditions open to public at www.reactionbiology.com/webapps/site/KinaseDetail.aspx?page=Kinases&id=1, and www.reactionbiology.com/webapps/site/Kinase Assay Protocol.aspx. In addition, they were specified previously in Anastassiadis et al. Nat. Biotechnol. 29(11): 1039-1045. doi:10.1038/nbt.2017.
A3) ALK5 Kinase Inhibition Assay Was Performed Similar to Procedures A1 and A2 Using GST-Modified TGFBR1 (200-503) and 1 mg/ml Casein as Substrate at 200 μM ATP.

[4] = test system: ALK1-mediated SMAD1/5 phosphorylation in HUVEC cells; assay: Cell-based immunofluorescence assay for ALK1-mediated SMAD1/5 phosphorylation in HUVEC cells; settings: Homo sapiens, 1.5 ng/ml BMP-9 with compound for 2 h, % nuclei with pSMAD1/5 signal, read-out: Smad 1/5 IC50
Procedure, shortened: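 Serum-starved primary HUVEC (≤5 passages) were treated with compound (1 nM-30 μM, 10 doses, 0.5% DMSO) plus 1.5 ng/ml BMP-9 for 2 h at 37° C. Cells were then fixed and immunostained for phospho-Smad1/5 (Ser463/465), and % positive nuclei were counted by confocal imaging. Data were normalised to DMSO (0%) and 10 μM reference inhibitor (−100%).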

SMILES | IC50 [1] | IC50 [2] | IC50 [3] | IC50 [4]
CN1CCN(c2ccc3[nH]c(-c4cc(-c5ccnc6[nH]ccc56)c[nH]c4=O)nc3c2)CC1 [Compound A50, 3-[6-(4-Methyl-piperazin-1-yl)-1H-benzimidazol-2-yl]-5-(1H-pyrrolo-[2,3-b]pyridin-4-yl)-1H-pyridin-2-one] | 2 nM | 5 nM | 170 nM | 400 nM
CN1CCN(c2ccc3[nH]c(-c4cc(-c5cnc6[nH]ccc6c5)c[nH]c4=O)nc3c2)CC1 [Compound A51, 3-[6-(4-Methyl-piperazin-1-yl)-1H-benzimidazol-2-yl]-5-(1H-pyrrolo[2,3-b]-pyridin-5-yl)-1H-pyridin-2-one] | 120 nM | 100 nM | 10000 nM | 5600 nM
Cc1[nH]c2ncccc2c1-c1c[nH]c(=O)c(-c2nc3cc(N4CCN(C)CC4)ccc3[nH]2)c1 [Compound A52, 3-[5-(4-Methyl-piperazin-1-yl)-1H-benzimidazol-2-yl]-5-(2-methyl-1H-pyrrolo-[2,3-b]pyridin-3-yl)-1H-pyridin-2-one] | 29 nM | 17 nM | 480 nM | 2600 nM
CN1CCC(Oc2ccc3[nH]c(-c4cc(-c5ccnc6ccccc56)c[nH]c4=O)nc3c2)CC1 [Compound A59, 3-[6-(1-Methyl-piperidin-4-yloxy)-1H-benzimidazol-2-yl]-5-quinolin-4-yl-1H-pyridin-2-one] | 170 nM | 80 nM | 2500 nM | 12000 nM
